Numbers after ± are expanded uncertainties.
What was measured:
[1] = refractive index (Na D-line) (dimensionless); details: 293.15 K; 101.33 kPa; Liquid; Standard Abbe refractometry
[2] = Liquid, Ebulliometric method (Recirculating still)

For `CC(C)CO` [2-methyl-1-propanol], the refractive index [1] was 1.3957 ± 0.002, the “vapor or sublimation pressure” value ([2]; 332.65 K) was 12.17 ± 0.63 kPa and the “vapor or sublimation pressure” value ([2]; 342.63 K) was 20.07 ± 0.63 kPa. For the same compound, the “vapor or sublimation pressure” value ([2]; 349.06 K) was 26.53 ± 0.64 kPa.

With `CCC(C)=O` [butanone] the refractive index [1] was 1.3791 ± 0.002, the “vapor or sublimation pressure” value ([2]; 332.65 K) was 51.76 ± 0.63 kPa and the “vapor or sublimation pressure” value ([2]; 333.65 K) was 52.42 ± 0.63 kPa. For the same compound, the “vapor or sublimation pressure” value ([2]; 342.63 K) was 72.71 ± 0.7 kPa, the “vapor or sublimation pressure” value ([2]; 343.55 K) was 74.79 ± 0.7 kPa and the “vapor or sublimation pressure” value ([2]; 348.55 K) was 88.29 ± 0.79 kPa. The “vapor or sublimation pressure” value ([2]; 349.06 K) was 90.1 ± 0.79 kPa.

In the case of `CCCCCO` [pentan-1-ol], the refractive index [1] is reported as 1.41 ± 0.002, the “vapor or sublimation pressure” value ([2]; 333.65 K) is reported as 3.43 ± 0.62 kPa and the “vapor or sublimation pressure” value ([2]; 343.55 K) is reported as 5.9 ± 0.62 kPa. The “vapor or sublimation pressure” value ([2]; 348.55 K) was 7.67 ± 0.62 kPa.

From the NIST ThermoML archive (doi:10.1021/acs.jced.8b00552)
